Assay results taken from ChEMBL document CHEMBL5678818, “Discovery of potent SOS1 inhibitors that block RAS activation via disruption of the RAS-SOS1 interaction” (Proc Natl Acad Sci U S A, 2019).

Assays:
[1] = molecular target: T1, Tyrosine-protein kinase ZAP-70 (Homo sapiens) (UniProt P43403); experiment: Inhibition of ZAP70 (unknown origin) assessed as residual activity at 100 nM by KINOMEscan analysis relative to control
T1 sequence (whole entry): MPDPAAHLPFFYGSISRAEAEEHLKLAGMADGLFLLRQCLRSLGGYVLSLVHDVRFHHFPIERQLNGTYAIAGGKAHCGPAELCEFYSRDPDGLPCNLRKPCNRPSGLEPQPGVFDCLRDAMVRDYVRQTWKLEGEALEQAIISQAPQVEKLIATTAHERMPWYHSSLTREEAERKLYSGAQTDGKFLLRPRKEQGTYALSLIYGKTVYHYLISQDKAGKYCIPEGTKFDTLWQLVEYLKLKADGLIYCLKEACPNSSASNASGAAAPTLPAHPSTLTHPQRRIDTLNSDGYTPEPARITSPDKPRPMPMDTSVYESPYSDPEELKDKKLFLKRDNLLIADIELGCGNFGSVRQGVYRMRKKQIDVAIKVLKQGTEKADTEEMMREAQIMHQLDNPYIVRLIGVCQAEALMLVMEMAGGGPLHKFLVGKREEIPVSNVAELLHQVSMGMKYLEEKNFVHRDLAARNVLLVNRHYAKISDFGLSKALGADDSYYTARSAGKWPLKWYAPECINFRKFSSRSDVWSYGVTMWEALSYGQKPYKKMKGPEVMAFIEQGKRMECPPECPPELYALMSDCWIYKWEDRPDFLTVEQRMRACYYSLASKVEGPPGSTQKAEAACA

[2] = molecular target: Interferon-induced, double-stranded RNA-activated protein kinase (Homo sapiens) (UniProt P19525); experiment: Inhibition of PRKR (unknown origin) assessed as residual activity at 100 nM by KINOMEscan analysis relative to control
Sequence of Interferon-induced, double-stranded RNA-activated protein kinase (Homo sapiens) (P19525 whole entry): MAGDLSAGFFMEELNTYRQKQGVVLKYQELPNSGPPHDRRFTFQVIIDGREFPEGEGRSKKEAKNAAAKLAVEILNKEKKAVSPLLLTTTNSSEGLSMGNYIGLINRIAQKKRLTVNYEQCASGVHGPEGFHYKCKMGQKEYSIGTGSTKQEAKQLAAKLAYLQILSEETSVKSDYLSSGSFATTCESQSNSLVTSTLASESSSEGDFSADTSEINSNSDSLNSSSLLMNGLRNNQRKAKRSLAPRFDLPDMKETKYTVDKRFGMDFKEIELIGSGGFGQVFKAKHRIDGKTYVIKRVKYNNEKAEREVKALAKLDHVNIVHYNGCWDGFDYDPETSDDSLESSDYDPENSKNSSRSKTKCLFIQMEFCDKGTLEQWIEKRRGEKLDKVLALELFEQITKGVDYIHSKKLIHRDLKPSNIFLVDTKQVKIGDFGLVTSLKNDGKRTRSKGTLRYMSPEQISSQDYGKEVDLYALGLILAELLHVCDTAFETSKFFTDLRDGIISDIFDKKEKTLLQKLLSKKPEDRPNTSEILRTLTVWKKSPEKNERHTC

[3] = molecular target: Tyrosine-protein kinase FRK (Homo sapiens) (UniProt P42685); experiment: Inhibition of FRK (unknown origin) assessed as residual activity at 100 nM by KINOMEscan analysis relative to control
Sequence of Tyrosine-protein kinase FRK (Homo sapiens) (P42685 whole entry): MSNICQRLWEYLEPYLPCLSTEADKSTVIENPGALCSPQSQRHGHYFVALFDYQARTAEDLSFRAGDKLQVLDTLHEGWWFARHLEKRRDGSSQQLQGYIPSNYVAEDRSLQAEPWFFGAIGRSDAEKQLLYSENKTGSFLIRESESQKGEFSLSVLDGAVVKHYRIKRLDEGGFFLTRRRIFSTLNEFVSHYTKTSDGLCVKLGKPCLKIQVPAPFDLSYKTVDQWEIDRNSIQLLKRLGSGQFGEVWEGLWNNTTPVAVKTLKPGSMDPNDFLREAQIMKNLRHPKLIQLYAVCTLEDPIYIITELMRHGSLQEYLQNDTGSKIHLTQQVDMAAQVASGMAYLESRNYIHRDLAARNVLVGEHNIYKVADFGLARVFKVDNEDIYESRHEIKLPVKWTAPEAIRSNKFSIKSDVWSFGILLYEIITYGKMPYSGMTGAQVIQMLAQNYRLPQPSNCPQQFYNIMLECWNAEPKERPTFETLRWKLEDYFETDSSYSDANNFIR

[4] = molecular target: T2, Rhodopsin kinase GRK1 (Homo sapiens) (UniProt Q15835); experiment: Inhibition of GRK1 (unknown origin) assessed as residual activity at 100 nM by KINOMEscan analysis relative to control
T2 sequence (whole entry): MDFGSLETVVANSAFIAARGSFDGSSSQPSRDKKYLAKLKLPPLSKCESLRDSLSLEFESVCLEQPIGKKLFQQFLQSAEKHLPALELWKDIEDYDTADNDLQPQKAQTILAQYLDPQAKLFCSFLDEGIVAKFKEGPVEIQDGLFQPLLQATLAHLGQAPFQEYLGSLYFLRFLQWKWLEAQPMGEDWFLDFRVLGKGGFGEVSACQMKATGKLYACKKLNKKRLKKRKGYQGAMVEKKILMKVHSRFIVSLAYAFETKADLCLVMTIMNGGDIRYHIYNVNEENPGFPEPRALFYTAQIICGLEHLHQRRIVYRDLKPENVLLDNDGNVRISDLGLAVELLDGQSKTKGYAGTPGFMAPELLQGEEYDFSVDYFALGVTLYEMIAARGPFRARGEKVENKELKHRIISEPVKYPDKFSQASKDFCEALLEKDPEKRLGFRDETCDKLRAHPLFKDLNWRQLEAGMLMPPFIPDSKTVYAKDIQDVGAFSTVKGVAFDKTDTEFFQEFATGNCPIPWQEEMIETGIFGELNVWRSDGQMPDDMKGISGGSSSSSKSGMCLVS

[5] = molecular target: Serine/threonine-protein kinase 16 (Homo sapiens) (UniProt O75716); experiment: Inhibition of STK16 (unknown origin) assessed as residual activity at 100 nM by KINOMEscan analysis relative to control
Sequence of Serine/threonine-protein kinase 16 (Homo sapiens) (O75716 whole entry): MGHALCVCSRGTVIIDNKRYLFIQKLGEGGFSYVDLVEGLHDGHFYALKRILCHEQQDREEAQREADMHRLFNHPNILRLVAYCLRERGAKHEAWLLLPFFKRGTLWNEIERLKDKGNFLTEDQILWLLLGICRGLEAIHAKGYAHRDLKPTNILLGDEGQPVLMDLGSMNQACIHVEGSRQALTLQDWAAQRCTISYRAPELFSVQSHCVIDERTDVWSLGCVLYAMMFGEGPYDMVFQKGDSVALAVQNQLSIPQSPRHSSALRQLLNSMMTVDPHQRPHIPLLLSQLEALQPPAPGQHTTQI

[6] = molecular target: T3, Dual specificity protein kinase TTK (Homo sapiens) (UniProt P33981); experiment: Inhibition of TTK (unknown origin) assessed as residual activity at 100 nM by KINOMEscan analysis relative to control
T3 sequence (whole entry): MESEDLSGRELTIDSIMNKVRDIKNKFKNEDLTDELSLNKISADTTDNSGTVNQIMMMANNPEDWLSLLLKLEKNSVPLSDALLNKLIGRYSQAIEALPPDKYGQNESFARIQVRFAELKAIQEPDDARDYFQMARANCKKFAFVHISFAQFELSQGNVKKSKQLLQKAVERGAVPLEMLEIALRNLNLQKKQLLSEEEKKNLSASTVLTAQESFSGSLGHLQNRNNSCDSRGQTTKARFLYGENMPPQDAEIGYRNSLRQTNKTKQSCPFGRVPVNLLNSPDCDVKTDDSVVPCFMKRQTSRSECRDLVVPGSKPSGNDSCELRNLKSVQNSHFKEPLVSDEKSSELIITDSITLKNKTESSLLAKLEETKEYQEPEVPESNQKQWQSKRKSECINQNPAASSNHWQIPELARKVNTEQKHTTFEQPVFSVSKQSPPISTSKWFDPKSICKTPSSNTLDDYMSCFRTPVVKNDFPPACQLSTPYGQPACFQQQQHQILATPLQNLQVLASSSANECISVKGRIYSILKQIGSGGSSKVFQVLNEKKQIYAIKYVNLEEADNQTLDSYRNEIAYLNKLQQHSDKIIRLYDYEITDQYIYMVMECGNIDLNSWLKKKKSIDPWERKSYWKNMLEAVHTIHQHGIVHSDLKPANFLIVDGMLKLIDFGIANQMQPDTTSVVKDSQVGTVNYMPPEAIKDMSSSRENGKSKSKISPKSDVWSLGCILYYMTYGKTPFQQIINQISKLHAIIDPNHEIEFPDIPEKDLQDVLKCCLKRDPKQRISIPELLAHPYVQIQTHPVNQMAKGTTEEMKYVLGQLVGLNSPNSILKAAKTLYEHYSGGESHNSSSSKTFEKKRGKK

[7] = molecular target: Serine/threonine-protein kinase VRK2 (Homo sapiens) (UniProt Q86Y07); experiment: Inhibition of VRK2 (unknown origin) assessed as residual activity at 100 nM by KINOMEscan analysis relative to control
Sequence of Serine/threonine-protein kinase VRK2 (Homo sapiens) (Q86Y07 whole entry): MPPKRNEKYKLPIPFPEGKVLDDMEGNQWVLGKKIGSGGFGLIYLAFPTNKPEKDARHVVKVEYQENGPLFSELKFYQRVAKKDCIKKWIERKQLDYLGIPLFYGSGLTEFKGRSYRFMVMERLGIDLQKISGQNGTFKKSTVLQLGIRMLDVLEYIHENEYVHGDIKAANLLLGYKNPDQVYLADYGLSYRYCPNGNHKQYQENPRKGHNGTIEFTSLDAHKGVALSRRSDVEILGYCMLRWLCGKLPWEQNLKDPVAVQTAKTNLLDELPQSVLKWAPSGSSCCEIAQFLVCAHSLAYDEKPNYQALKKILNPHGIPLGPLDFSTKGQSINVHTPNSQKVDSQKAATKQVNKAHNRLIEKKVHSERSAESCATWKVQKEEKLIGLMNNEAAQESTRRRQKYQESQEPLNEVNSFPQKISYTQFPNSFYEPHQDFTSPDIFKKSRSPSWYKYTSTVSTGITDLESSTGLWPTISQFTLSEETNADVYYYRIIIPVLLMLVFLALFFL

[8] = system: Proto-oncogene tyrosine-protein kinase receptor Ret (Homo sapiens), P07949 [M918T]; experiment: Inhibition of RET M918T mutant (unknown origin) assessed as residual activity at 100 nM by KINOMEscan analysis relative to control
Sequence of Proto-oncogene tyrosine-protein kinase receptor Ret (Homo sapiens), P07949 [M918T] (P07949 whole entry M918T): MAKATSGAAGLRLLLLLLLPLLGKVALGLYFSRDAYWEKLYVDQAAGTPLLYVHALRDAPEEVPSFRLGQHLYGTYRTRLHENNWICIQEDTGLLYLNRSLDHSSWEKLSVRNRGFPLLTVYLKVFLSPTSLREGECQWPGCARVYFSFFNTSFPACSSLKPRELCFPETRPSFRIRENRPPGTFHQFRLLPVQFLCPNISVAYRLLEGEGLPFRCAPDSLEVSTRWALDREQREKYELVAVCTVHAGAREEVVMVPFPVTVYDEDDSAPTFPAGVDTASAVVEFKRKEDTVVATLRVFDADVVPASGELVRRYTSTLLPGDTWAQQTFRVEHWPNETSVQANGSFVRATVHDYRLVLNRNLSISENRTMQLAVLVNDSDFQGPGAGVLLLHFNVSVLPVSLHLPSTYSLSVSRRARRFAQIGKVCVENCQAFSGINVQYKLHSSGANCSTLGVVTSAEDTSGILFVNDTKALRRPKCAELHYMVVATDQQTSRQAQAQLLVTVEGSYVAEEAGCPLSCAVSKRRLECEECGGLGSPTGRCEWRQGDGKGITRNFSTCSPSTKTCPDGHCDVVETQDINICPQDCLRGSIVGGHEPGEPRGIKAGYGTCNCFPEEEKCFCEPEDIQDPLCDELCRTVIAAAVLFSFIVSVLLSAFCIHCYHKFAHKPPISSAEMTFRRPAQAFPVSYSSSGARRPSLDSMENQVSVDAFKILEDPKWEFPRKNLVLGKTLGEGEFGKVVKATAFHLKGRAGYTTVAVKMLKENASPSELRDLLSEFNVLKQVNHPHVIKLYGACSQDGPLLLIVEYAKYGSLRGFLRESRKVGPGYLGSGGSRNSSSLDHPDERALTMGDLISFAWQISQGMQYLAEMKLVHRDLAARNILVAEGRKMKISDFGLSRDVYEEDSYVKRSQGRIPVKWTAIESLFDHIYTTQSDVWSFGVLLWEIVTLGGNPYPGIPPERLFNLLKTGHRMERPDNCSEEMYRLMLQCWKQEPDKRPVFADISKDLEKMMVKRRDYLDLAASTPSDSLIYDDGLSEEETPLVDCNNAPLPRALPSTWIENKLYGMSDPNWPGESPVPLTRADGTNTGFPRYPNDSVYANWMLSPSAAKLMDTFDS

[9] = molecular target: Death-associated protein kinase 1 (Homo sapiens) (UniProt P53355); experiment: Inhibition of DAPK1 (unknown origin) assessed as residual activity at 100 nM by KINOMEscan analysis relative to control
Sequence of Death-associated protein kinase 1 (Homo sapiens) (P53355 whole entry, looked up, canonical isoform): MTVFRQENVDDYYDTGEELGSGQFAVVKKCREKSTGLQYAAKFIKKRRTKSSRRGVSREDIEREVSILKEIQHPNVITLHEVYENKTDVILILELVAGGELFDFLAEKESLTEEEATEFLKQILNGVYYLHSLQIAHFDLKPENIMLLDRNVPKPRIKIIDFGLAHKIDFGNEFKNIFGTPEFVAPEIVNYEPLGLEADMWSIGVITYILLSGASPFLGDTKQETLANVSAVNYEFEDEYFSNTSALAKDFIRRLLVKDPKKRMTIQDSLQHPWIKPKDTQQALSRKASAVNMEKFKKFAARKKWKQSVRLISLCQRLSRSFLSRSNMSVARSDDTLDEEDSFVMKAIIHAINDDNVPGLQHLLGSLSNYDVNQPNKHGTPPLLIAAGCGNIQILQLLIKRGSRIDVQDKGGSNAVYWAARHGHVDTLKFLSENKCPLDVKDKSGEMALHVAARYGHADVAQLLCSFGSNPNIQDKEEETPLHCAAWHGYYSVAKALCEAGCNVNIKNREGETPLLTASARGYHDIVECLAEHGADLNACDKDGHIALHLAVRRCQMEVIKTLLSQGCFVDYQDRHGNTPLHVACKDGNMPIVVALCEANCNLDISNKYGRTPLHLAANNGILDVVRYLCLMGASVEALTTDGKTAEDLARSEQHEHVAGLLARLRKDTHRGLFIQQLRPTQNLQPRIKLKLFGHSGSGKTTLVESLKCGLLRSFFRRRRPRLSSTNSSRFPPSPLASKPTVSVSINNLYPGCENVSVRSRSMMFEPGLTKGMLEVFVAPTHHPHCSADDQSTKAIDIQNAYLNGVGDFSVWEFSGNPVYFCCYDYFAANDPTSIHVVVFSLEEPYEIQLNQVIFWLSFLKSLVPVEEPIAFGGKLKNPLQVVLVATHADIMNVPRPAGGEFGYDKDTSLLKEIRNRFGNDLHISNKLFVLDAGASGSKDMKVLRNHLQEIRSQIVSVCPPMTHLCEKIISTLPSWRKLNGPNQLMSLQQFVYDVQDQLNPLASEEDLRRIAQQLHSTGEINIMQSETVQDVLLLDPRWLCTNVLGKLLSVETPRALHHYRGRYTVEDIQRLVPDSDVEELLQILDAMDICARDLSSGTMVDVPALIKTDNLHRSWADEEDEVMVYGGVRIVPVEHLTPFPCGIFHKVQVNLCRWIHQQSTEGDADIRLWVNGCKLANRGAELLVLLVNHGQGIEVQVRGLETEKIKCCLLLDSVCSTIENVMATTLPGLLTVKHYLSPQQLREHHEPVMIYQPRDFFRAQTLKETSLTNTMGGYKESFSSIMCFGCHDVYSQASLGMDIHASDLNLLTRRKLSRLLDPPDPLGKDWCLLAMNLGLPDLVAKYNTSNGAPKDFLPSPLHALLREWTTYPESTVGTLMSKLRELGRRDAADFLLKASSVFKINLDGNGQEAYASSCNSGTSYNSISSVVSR

[10] = molecular target: Phosphorylase b kinase gamma catalytic chain, skeletal muscle/heart isoform (Homo sapiens) (UniProt Q16816); experiment: Inhibition of PHKG1 (unknown origin) assessed as residual activity at 100 nM by KINOMEscan analysis relative to control
Sequence of Phosphorylase b kinase gamma catalytic chain, skeletal muscle/heart isoform (Homo sapiens) (Q16816 whole entry, looked up, canonical isoform): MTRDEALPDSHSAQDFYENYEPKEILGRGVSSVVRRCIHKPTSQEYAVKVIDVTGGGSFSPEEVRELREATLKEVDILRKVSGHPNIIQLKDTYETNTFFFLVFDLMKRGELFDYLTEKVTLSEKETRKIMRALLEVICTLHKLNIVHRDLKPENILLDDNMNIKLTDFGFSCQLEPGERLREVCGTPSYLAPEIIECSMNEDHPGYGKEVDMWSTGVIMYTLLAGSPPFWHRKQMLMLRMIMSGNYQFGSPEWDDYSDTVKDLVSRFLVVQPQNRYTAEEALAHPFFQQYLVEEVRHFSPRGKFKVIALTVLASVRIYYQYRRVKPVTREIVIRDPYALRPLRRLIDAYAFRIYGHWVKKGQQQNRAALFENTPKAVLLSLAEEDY

[11] = system: Receptor-type tyrosine-protein kinase FLT3 (Homo sapiens), P36888 [K663Q]; experiment: Inhibition of FLT3 K663Q mutant (unknown origin) assessed as residual activity at 100 nM by KINOMEscan analysis relative to control
[12] = molecular target: TRAF2 and NCK-interacting protein kinase (Homo sapiens) (UniProt Q9UKE5); experiment: Inhibition of TNIK (unknown origin) assessed as residual activity at 100 nM by KINOMEscan analysis relative to control

COc1cc2ncnc(N[C@H](C)c3cccc4ccccc34)c2cc1OC
Activity [1]: 77%
Activity [2]: 100%
Activity [3]: 93%
Activity [4]: 96%
Activity [5]: 93%
Activity [6]: 95%
Activity [7]: 72%
Activity [8]: 99%
Activity [9]: 100%
Activity [10]: 100%
Activity [11]: 90%
Activity [12]: 100%
